Values quoted from earlier work in patent US20120171239A1, “Immunogenic Conjugates for Producing Immune Responses to Drugs of Abuse and Methods of Use” (priority 2009, published 2012).

Test system: D2
Conditions: i.v. injection of 1.0 mg/kg cocaine, PET

COC(=O)[C@H]1[C@@H](OC(=O)c2ccccc2)C[C@@H]2CC[C@H]1N2C [cocaine]
reduction of FCP uptake: ≤ 40%
